Measured values taken from the NIST ThermoML archive (doi:10.1021/je3001969).
± gives the expanded uncertainty stated by the source.

Assay: xn = mol fraction of the nth substance listed
Settings: Liquid, Pycnometric method

`[C-]#[O+]` [carbon monoxide] + CCC(=O)O showed a mass density (293.2 K, x1 = 0.0156) of 988.2 ± 10 kg/m3, a mass density (293.2 K, x1 = 0.0211) of 983.1 ± 10 kg/m3 and a mass density (293.2 K, x1 = 0.0237) of 978.3 ± 10 kg/m3. It also gave a mass density (293.2 K, x1 = 0.0298) of 970.5 ± 10 kg/m3, a mass density (293.2 K, x1 = 0.0353) of 962.3 ± 10 kg/m3 and a mass density (293.2 K, x1 = 0.0418) of 950.4 ± 10 kg/m3. It also gave a mass density (293.2 K, x1 = 0.0487) of 937.2 ± 10 kg/m3, a mass density (293.2 K, x1 = 0.0596) of 919.7 ± 9.7 kg/m3 and a mass density (313.2 K, x1 = 0.0121) of 985.4 ± 11 kg/m3. It also gave a mass density (313.2 K, x1 = 0.0146) of 978.3 ± 10 kg/m3, a mass density (313.2 K, x1 = 0.0202) of 972.6 ± 10 kg/m3 and a mass density (313.2 K, x1 = 0.0269) of 965.1 ± 10 kg/m3. The mass density (313.2 K, x1 = 0.0311) was 957.4 ± 10 kg/m3, the mass density (313.2 K, x1 = 0.0387) was 945.2 ± 10 kg/m3 and the mass density (313.2 K, x1 = 0.0465) was 931.2 ± 10 kg/m3. It also gave a mass density (313.2 K, x1 = 0.0557) of 913.3 ± 9.9 kg/m3, a mass density (333.2 K, x1 = 0.0105) of 977.4 ± 10 kg/m3 and a mass density (333.2 K, x1 = 0.0125) of 971.2 ± 10 kg/m3. For the same compound, the mass density (333.2 K, x1 = 0.0179) was 964.9 ± 9.9 kg/m3, the mass density (333.2 K, x1 = 0.024) was 958 ± 10 kg/m3 and the mass density (333.2 K, x1 = 0.028) was 949.8 ± 10 kg/m3. The mass density (333.2 K, x1 = 0.0341) was 938.5 ± 10 kg/m3, the mass density (333.2 K, x1 = 0.0418) was 925.3 ± 10 kg/m3 and the mass density (333.2 K, x1 = 0.0508) was 907.7 ± 9.9 kg/m3. For the same compound, the mass density (353.2 K, x1 = 0.0082) was 968.4 ± 10 kg/m3, the mass density (353.2 K, x1 = 0.0108) was 963 ± 10 kg/m3 and the mass density (353.2 K, x1 = 0.0165) was 956.7 ± 9.7 kg/m3. The mass density (353.2 K, x1 = 0.0225) was 952.3 ± 9.8 kg/m3, the mass density (353.2 K, x1 = 0.0267) was 944.7 ± 10 kg/m3 and the mass density (353.2 K, x1 = 0.0331) was 933.4 ± 10 kg/m3. The mass density (353.2 K, x1 = 0.0407) was 919.6 ± 10 kg/m3 and the mass density (353.2 K, x1 = 0.0478) was 902.3 ± 10 kg/m3.

`[C-]#[O+]` [carbon monoxide] + COC=O gave a mass density (293.2 K, x1 = 0.0184) of 976.3 ± 9.8 kg/m3, a mass density (293.2 K, x1 = 0.0214) of 976.1 ± 9.8 kg/m3 and a mass density (293.2 K, x1 = 0.0274) of 974.9 ± 9.8 kg/m3. It also gave a mass density (293.2 K, x1 = 0.0342) of 971.3 ± 9.8 kg/m3, a mass density (293.2 K, x1 = 0.0445) of 964.7 ± 9.8 kg/m3 and a mass density (293.2 K, x1 = 0.054) of 954.7 ± 9.8 kg/m3. The mass density (293.2 K, x1 = 0.0735) was 932.5 ± 9.6 kg/m3, the mass density (293.2 K, x1 = 0.0914) was 911.2 ± 9.4 kg/m3 and the mass density (313.2 K, x1 = 0.012) was 972.1 ± 9.7 kg/m3. The mass density (313.2 K, x1 = 0.0196) was 971.5 ± 9.7 kg/m3, the mass density (313.2 K, x1 = 0.0259) was 969.3 ± 9.8 kg/m3 and the mass density (313.2 K, x1 = 0.0358) was 962.4 ± 9.8 kg/m3. It also gave a mass density (313.2 K, x1 = 0.0473) of 950.8 ± 9.7 kg/m3, a mass density (313.2 K, x1 = 0.0598) of 937.3 ± 9.7 kg/m3 and a mass density (313.2 K, x1 = 0.0691) of 924.7 ± 9.7 kg/m3. It also gave a mass density (313.2 K, x1 = 0.0812) of 904.3 ± 9.7 kg/m3, a mass density (333.2 K, x1 = 0.0101) of 969.2 ± 9.7 kg/m3 and a mass density (333.2 K, x1 = 0.0136) of 968.7 ± 9.7 kg/m3. For the same compound, the mass density (333.2 K, x1 = 0.0204) was 967.6 ± 9.7 kg/m3, the mass density (333.2 K, x1 = 0.0286) was 960.7 ± 9.8 kg/m3 and the mass density (333.2 K, x1 = 0.0412) was 947.8 ± 9.7 kg/m3. The mass density (333.2 K, x1 = 0.0496) was 937.5 ± 9.7 kg/m3, the mass density (333.2 K, x1 = 0.0613) was 923 ± 9.7 kg/m3 and the mass density (333.2 K, x1 = 0.0744) was 901.3 ± 9.6 kg/m3. It also gave a mass density (353.2 K, x1 = 0.0063) of 964.6 ± 9.7 kg/m3, a mass density (353.2 K, x1 = 0.01) of 964.2 ± 9.7 kg/m3 and a mass density (353.2 K, x1 = 0.0159) of 963.2 ± 9.7 kg/m3. For the same compound, the mass density (353.2 K, x1 = 0.0224) was 956.8 ± 9.8 kg/m3, the mass density (353.2 K, x1 = 0.0297) was 948.7 ± 9.8 kg/m3 and the mass density (353.2 K, x1 = 0.0401) was 935.3 ± 9.7 kg/m3. For the same compound, the mass density (353.2 K, x1 = 0.0549) was 916.8 ± 9.6 kg/m3 and the mass density (353.2 K, x1 = 0.0696) was 895.8 ± 9.4 kg/m3.
